Source: patent US20070275953A1 (priority 2003, published 2007)
Where two headings read alike, the source gives them in different places.

How the values were obtained:
[1] = test system: HIV-1 mutant Cys188RT in TZM-bl cells; assay: Anti-HIV assay on TZM-bl cells, Cys188RT mutant; type: cell-based; conditions: read-out: EC50 Cys188RT TZM-bl
Description: (§1) In order to introduce mutation(s) at the level of the pol gene coding for the RT in the pNL4-3 plasmid containing the complete viral genome (Adachi et al., 1986. J. Virol., Vol. 59 p 284-291) we used the “Quick change mutagenesis kit” (Stratagene). The following mutations were separately introduced in pNL4-3: L100I, K103N, V108I, Y181C, Y188C, and the double mutations K103N/V108I. These mutations were chosen because of the resistance that they confer to existing NNRTI. The production procedure of the mutant viral stocks is identical to the one described above.
(§2) Anti-HIV activity and cytotoxicity of the compounds were tested on the TZM-b1 cell line. The TZM-b1 cell line (Wei et al. 2002. Antimicrob. Agents Chemother. Vol. 46, p 1896-1905) was received from the NIH AIDS Research and Reference Reagent Program. These cells were cultured in complete DMEM medium supplemented with 10% fetal bovine serum (FBS), and 1% Penicillin/Streptomycin. Exponentially growing cells were trypsinized, centrifuged and split twice weekly at 5 10^4 cells/ml.
(§3) The anti-HIV assay with TZM-b1 cells is essentially the same as described above with P4 cells. The main difference between the two cell lines is that the TZM-b1 cells express at their surface both the CD4 and CCR5 proteins, acting as receptor and co-receptor for HIV entry, respectively (Wei et al. 2002. Antimicrob. Agents Chemother. Vol. 46, p 1896-1905). This feature makes the cells very sensitive to infection by the virus. The TMZ-b1 cells were infected with equal amount of cell-free virus, corresponding to 10 ng of HIV p24 antigen. This amount is ten times lower than the amount used to infect the P4 cells.

[2] = test system: HIV-1 mutant Asn103/Ile108RT in TZM-bl cells; assay: Anti-HIV assay on TZM-bl cells, Asn103/Ile108RT double mutant; type: cell-based; conditions: read-out: EC50 Asn103/Ile108RT TZM-bl
Description: as §1, §2, §3

[3] = test system: HIV-1 with WT (wild type) RT in P4 cells; conditions: published values; read-out: Nevirapine activity, published values; cited from earlier work
[4] = test system: HIV-1 mutant Asn103RT in P4 cells; assay: Anti-HIV assay on P4 cells, Asn103RT mutant; type: cell-based
Description: as §1
Anti-HIV activity and cytotoxicity of the compounds were tested on a P4 cell line. The P4 cell line (Clavel & Charneau, 1994. J. Virol., Vol. 68 p 1179-1185) was provided by Dr. François Clavel (Unité de recherche antivirale de l'hôpital Xavier Bichat Paris: Inserm). The P4 cells were cultured in complete DMEM medium supplemented with 10% fetal bovine serum (FBS), 0.5% of Penicillin/Streptomycin and G418 at 0.5 mg/ml. Exponentially growing cells were trypsinized, centrifuged and split twice weekly at 5.10^4 cells/ml.
The P4 cells are HIV-infectible Hela-CD4 cells that carry the bacterial lacZ gene under the control of the HIV-1 long terminal repeat (LTR). In this cell line, transcription of the LacZ gene is driven by the HIV-1 LTR. […]
Briefly, in the anti-HIV assay 100 Ål of P4 cells were plated in 96-well plate at a concentration of 0.4 10^5 cells/ml and incubated at 37° C., 5% CO2. […] After 48 h of incubation at 37° C., 5% CO2, β-galactosidase activity was measured using chlorophenol red-β-D-galactopyranoside assays.
The absorbance was measured on a Benchmark™ Microplate Reader (Biorad) (λ=570 nm) and compared with 12 cell control replicates (no virus or drug added) and 12 virus control wells (no drug added). […] The 50% effective concentration (Ec50) was calculated from each dose response curve using the CurveExpert 1.3 software. […]

[5] = Human immunodeficiency virus 1, TZM-bl
[6] = Human immunodeficiency virus 1, read-out: EC50 Asn103RT P4
[7] = TZM-bl, double mutant Asn103/Ile108RT

Question: Which EC50 [1, 5] does the source give for `O=C1Nc2ccc(Cl)cc2[C@@](C#CC2CC2)(C(F)(F)F)O1` [Efavirenz, reference compound] here?
Answer: Its EC50 is under 1 nM.

Question: And the EC50 [2, 5]?
Answer: Its EC50 is 150 nM.

Question: With `Cc1ccnc2c1NC(=O)c1cccnc1N2C1CC1` [Nevirapine, reference compound] as the compound, how does the EC50 [1, 5] read?
Answer: The EC50 was 2720 nM.

Question: And the EC50 [3]?
Answer: The EC50 was 10 to 100 nM.

Question: And the EC50 [4, 6]?
Answer: Its EC50 is 1710 nM.

Question: For `CCc1c(C)[nH]c(=O)c([N+](=O)[O-])c1OC1CC(C)CC(C)C1` (stereo not drawn) [Z91inv, 3-nitro-5-ethyl-6-methyl-4-[(3,5-dimethylcyclohexyl)oxy]pyridine-2(1H)-one], which melting point is on record?
Answer: Its melting point is 206 to 207 °C.

Question: What about the EC50 [4, 6] of the same compound?
Answer: The EC50 was 89 nM.

Question: For `CCc1c(C)[nH]c(=O)c(CSC(C)=O)c1OC1CC(C)CC(C)C1` (stereo not drawn) [Z114], which EC50 ([1]; TZM-bl, mutant Cys188RT) is on record?
Answer: The EC50 was 1 nM.

Question: What about the EC50 ([4]; P4, mutant Asn103RT, read-out: EC50 Asn103RT P4) of the same compound?
Answer: Its EC50 is 643 nM.

Question: What does the source list for `CCc1c(C)[nH]c(=O)c(N(C)C)c1OC1CC(C)CC(C)C1` (stereo not drawn) [Z150, 3-(dimethylamino)-5-ethyl-6-methyl-4-[(3,5-dimethylcyclohexyl)oxy]pyridine-2(1H)-one]?
Answer: melting point: 129 to 130 °C; EC50 [1, 5]: < 1 nM; EC50 [2, 5]: 158 nM

Question: For `CCc1c(C)[nH]c(=O)c(CN=[N+]=[N-])c1OC1CC(C)CC(C)C1` (stereo not drawn) [Z153], which EC50 ([1]; TZM-bl, mutant Cys188RT) is on record?
Answer: Its EC50 is under 1 nM.

Question: And the EC50 [2, 7]?
Answer: The EC50 was 366 nM.

Question: For `CCc1c(C)[nH]c(=O)c(C)c1OC1CC(C)CC(C)C1` (stereo not drawn) [Z154], which EC50 [2, 7] is on record?
Answer: Its EC50 is 231 nM.
